molecular target: T1, L-CPT1 (human liver CPT1) (Homo sapiens, UniProt P50416); test: L-CPT1 inhibition, spectrophotometric CPT activity assay with DTNB (Ellman's reagent); assay type: biochemical; conditions: cell-free extracts of P. pastoris expressing human liver CPT1; carnitine 500 μM, palmitoyl-CoA 80 μM, DTNB 300 μM, pH 7.4
T1 construct: made in house; host or cells: Pichia pastoris strain X-33 (pGAPZB/pGAPZA), crude cell-free extract
T1 sequence (P50416 1-773): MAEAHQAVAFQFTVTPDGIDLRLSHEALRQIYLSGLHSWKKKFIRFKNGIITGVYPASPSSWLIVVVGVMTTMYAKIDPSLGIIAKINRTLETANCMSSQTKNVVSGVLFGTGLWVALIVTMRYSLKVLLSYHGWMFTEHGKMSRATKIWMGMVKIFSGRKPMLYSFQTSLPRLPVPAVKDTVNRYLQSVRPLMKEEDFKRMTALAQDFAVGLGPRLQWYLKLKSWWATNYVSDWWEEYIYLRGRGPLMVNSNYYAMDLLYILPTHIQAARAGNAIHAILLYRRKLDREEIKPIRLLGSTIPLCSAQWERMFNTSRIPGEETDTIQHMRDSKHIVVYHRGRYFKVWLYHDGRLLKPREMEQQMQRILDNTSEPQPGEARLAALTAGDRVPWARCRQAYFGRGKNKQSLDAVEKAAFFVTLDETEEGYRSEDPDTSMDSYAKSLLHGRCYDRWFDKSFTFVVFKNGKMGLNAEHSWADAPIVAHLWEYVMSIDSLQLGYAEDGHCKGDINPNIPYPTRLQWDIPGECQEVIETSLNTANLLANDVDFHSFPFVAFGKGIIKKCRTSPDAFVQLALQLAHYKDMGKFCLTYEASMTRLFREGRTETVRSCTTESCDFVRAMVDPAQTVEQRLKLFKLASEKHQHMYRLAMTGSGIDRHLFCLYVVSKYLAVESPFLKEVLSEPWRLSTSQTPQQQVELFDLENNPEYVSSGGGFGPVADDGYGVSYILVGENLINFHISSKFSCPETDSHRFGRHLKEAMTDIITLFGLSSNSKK
Experimental: The following tests were carried out in order to determine the activity of the compounds of the present invention. Background information on the performed assays can be found in: Jackson et al., 1999, Biochem. J. 341, 483-489 and Jackson et al., 2000, J. Biol. Chem. 275, 19560-19566.
Human liver and muscle CPT1 cDNAs and rat CPT2 cDNA were subcloned in pGAPZB or pGAPZA, respectively. These plasmids were used to transform P. pastoris strain X-33 via electroporation after the preparation of electrocompetent cells. High copy number clones were selected where necessary using 0.5 or 1 mg/ml Zeocin. Cultures for activity measurements were induced for 16 h in YPD medium (1% yeast extract, 2% peptone, 2% glucose). Crude cell extracts were prepared by disrupting the cells with glass beads or French Press, depending on fermenter sizes. After centrifugation, the cell-free extracts were resuspended in cell breaking buffer (50 mM Tris, pH7.4, 100 mM KCl, 1 mM EDTA) in the presence of a protease inhibitor cocktail, before aliquoting and freezing at −20° C.
CPT activity was measured using a spectrophotometric assay using 5,5′-dithio-bis-(2-nitrobenzoic acid) (DTNB) also called Ellman's reagent. The HS-CoA released on the formation of acylcarnitine from carnitine (500 μM) and palmitoyl-CoA (80 μM) reduced DTNB (300 μM) forming 5-mercapto-(2-nitrobenzoic acid) which absorbed at 410 nm with a molar extinction coefficient of 13600 M^−1.cm^−1. The assay buffer contained 120 mM KCl, 25 mM Tris, pH 7.4, 1 mM EDTA. This assay was used for the identification of selective inhibitors of the liver CPT1 isoform versus the muscle CPT1 and CPT2 isoforms.

Row | Structure (SMILES) | IC50 [nM]
1 | COc1ccc(Cl)cc1S(=O)(=O)N1COCc2ccc(C(=O)Nc3ccc(C(=O)O)cc3)cc21 [Example 73, 4-{[1-(5-Chloro-2-methoxy-benzenesulfonyl)-1,4-dihydro-2H-benzo[d][1,3]oxazine-7-carbonyl]-amino}-benzoic acid] | 56
2 | COc1ccc(Cl)cc1S(=O)(=O)N1COc2ccc(C(=O)Nc3ccc(C(=O)O)c(F)c3)cc21 [Example 32, 4-{[3-(5-Chloro-2-methoxy-benzenesulfonyl)-2,3-dihydro-benzooxazole-5-carbonyl]-amino}-2-fluoro-benzoic acid] | 140
3 | COc1ccc(Cl)cc1S(=O)(=O)N1CC(C(=O)O)Oc2ccc(C(=O)Nc3cccc(F)c3)cc21 (centres unmarked) [Example 113, 4-(5-Chloro-2-methoxy-benzenesulfonyl)-6-(3-fluoro-phenylcarbamoyl)-3,4-dihydro-2H-benzo[1,4]oxazine-2-carboxylic acid] | 16

More lines, in order of falling IC50, values ahead:

Row | IC50 [nM] | Structure (SMILES)
4 | 78 | COc1ccc(Cl)cc1S(=O)(=O)N1CCOc2ccc(C(=O)Nc3ccc(C(=O)O)c(F)c3)cc21 [Example 2, 4-{[4-(5-Chloro-2-methoxy-benzenesulfonyl)-3,4-dihydro-2H-benzo[1,4]oxazine-6-carbonyl]-amino}-2-fluoro-benzoic acid]
5 | 23 | O=C(O)Cc1csc(NC(=O)c2ccc3c(c2)N(S(=O)(=O)c2cccc(Cl)c2)CCO3)n1 [Example 92, (2-{[4-(3-Chloro-benzenesulfonyl)-3,4-dihydro-2H-benzo[1,4]oxazine-6-carbonyl]-amino}-thiazol-4-yl)-acetic acid]
